In US20040014215A1, “Synchronised arabidopsis cell suspensions and uses thereof” (priority 2000, published 2004):

Key:
Assay type in all cases: cell-based, Arabidopsis thaliana
[1] = test system: Arabidopsis cell suspension culture MM1; test: Aphidicolin block/release of MM1: mitotic index (DAPI) and labelling index (BrdU)
Protocol: Arabidopsis cell suspension culture MM1 (DSM 13563) was used for synchronisation experiments. The suspension culture was maintained by sub-culturing weekly 10 ml into 200 ml of fresh MSS-medium (MS-salt, 3% sucrose, 0.5 mg/l NAA, 0.05 mg/l kinetin) which is cultured in 500 ml narrow neck Erlenmeyer flasks, of which the opening is covered with double layer of aluminium foil and loosely covered with Saran wrap and which are placed on a GYROTORY® Shaker (New Brunswick Scientific). The cell suspension culture was grown under continuous light conditions (24 hrs a day); Philips lamps were used with the specification TLD HF 50W/840; light level is in average 1300 Lux and the cell suspension culture is rotated at 120 rpm at a temperature varying between 23-25° C. To arrest cells reversibly in late G1/early S-phase, cells were blocked with aphidicolin according to Nagata et al. 1992 (with slight modifications), 40 ml of an early stationary phase cell suspension culture was subcultured into 200 ml MSS-medium, 4.16 μg/ml aphidicolin was added to block cells at the end of G1/early S-phase, and the culture was incubated at 23° C., 120 rpm in the conditions as described above for MM1, for a period of 21.5 hrs. To remove aphidicolin, cells were washed through a nylon mesh (mesh size 47 μm) with 11 MSS-medium by vigorously shaking and resuspended in MSS-medium. The cells were vigorously shaken, for a washing time of about 14 min, and then centrifuged at 150Orpm for 1 min (387 rcf) with the brake switched off.

[2] = test system: Arabidopsis cell suspension culture MM1; test: Scaled-up aphidicolin (4.16 μg/ml, 24 hrs) synchronisation of MM1: LI and MI
Protocol: was analysed following the expression level of known cell cycle regulated genes. Synchronisation was performed as described in Example 2A, with the exception that two 7-day old cultures of the weekly sub-cultured cell suspension (210 ml each) were combined. 40 ml of combined culture was transferred into 200 ml of fresh MSS-medium in each of 10 separate flasks. After incubation for 24 hrs under conditions as described in Example 1, in the presence of 4.16 μg/ml aphidicolin, cells from 5 pooled flasks were washed through a nylon net (mesh size 47 μm) and washed with 2 litre MSS medium and shaken vigorously to remove the aphidicolin. Cells were transferred into a 50 ml plastic tube, washed again with MSS medium and centrifuged at 2500 rpm for 1 min (1075 rcf). Cells were resuspended and combined with the cells from the other 5 flasks similarly washed in a total volume of 300 ml fresh MSS-medium. 30 ml of this cell suspension was then added to 200 ml fresh MSS-medium in each of 10 separate flasks.
For every time point a 30 ml sample was split into:
2) 5 ml for LI and Ml determination as described in Example 2A.
A MI peak of 9.8% was observed, about 12 hrs after release from the aphidicolin block. Labelling index was also determined and reached a peak of 52%, 3 h after release.

[3] = test system: Arabidopsis cell suspension MM2d; test: Aphidicolin block/release of MM2d: mitotic index and labelling index
Protocol: This experiment was carried out as described for Example 1, except that cell line MM2d was used, and the culture conditions throughout the experiment were as described for MM2d in Example 1.
Synchronisation was performed as described in Example 2A, with the exception that before adding aphidicolin, 20 ml of the weekly subcultured cell suspension was transferred into 100 ml fresh MSS-medium in each of 2 separate flasks and cultivated under conditions as described in Example 1 for MM2d. […] Samples were taken at the same time frame for flow cytometry to follow cell cycle transition.
Samples were analysed by flow cytometry to determine the percentage of cells being in G1-, S- and G2M phase. The mitotic index (MI) and labelling index (LI) were independently determined (as described in Example 2A). Results are shown below in table II and in FIG. 1.
Table II. Aphidicolin block/release of Arabidopsis cell suspension MM2d. Data are shown from analysis of samples obtained in the experiment described in Example 2B.

[4] = range seen on blocking the cells with aphidicolin
[5] = this experiment (Example 2A), after release from aphidicolin block

## C[C@@]1(CO)[C@H](O)CC[C@@]2(C)[C@H]1CC[C@H]1C[C@@H]3C[C@@]12CC[C@]3(O)CO [aphidicolin]
[1]; 1 h after aphidicolin removal
  Labelling Index (%): 23.21%
  Mitotic index (%): 0%
[1]; 2 h after aphidicolin removal
  Labelling Index (%): 41.3%
  Mitotic index (%): 0.5%
[1]; 3 h after aphidicolin removal
  Labelling Index (%): 65.06%
  Mitotic index (%): 0.58%
[1]; 4 h after aphidicolin removal
  Labelling Index (%): 64.13%
  Mitotic index (%): 0.5%
[1]; 5 h after aphidicolin removal
  Labelling Index (%): 50%
  Mitotic index (%): 0.68%
[1]; 6 h after aphidicolin removal
  Labelling Index (%): 18.43%
  Mitotic index (%): 1.88%
[1]; 7 h after aphidicolin removal
  Labelling Index (%): 13.67%
  Mitotic index (%): 2.37%
[1]; 8 h after aphidicolin removal
  Labelling Index (%): 10.32%
  Mitotic index (%): 2.04%
[1]; 9 h after aphidicolin removal
  Labelling Index (%): 8.1%
  Mitotic index (%): 2.63%
[1]; 10 h after aphidicolin removal
  Labelling Index (%): 7.86%
  Mitotic index (%): 2.84%
[1]; 11 h after aphidicolin removal
  Labelling Index (%): 7.65%
  Mitotic index (%): 5.06%
[1]; 12 h after aphidicolin removal
  Labelling Index (%): 6.8%
  Mitotic index (%): 7.96%
[1]; 13 h after aphidicolin removal
  Labelling Index (%): 3.08%
  Mitotic index (%): 11.67%
[1]; 14 h after aphidicolin removal
  Labelling Index (%): 5.05%
  Mitotic index (%): 9.03%
[1]; 15 h after aphidicolin removal
  Labelling Index (%): 3.68%
  Mitotic index (%): 7.86%
[1]; 16 h after aphidicolin removal
  Labelling Index (%): 4.09%
  Mitotic index (%): 5%
[1]; 17 h after aphidicolin removal
  Labelling Index (%): 9.46%
  Mitotic index (%): 2.96%
[1]; 18 h after aphidicolin removal
  Labelling Index (%): 12.96%
  Mitotic index (%): 3.24%
[1]; 19 h after aphidicolin removal
  Labelling Index (%): 10.91%
  Mitotic index (%): 2.06%
[1]; [4]
  MI peak: 10 to 15%
  labelling index: 50-65%
[1]; [5]
  LI peak: 65%
  MI peak: 12%
[2]; 3 h after release
  Labelling index peak: 52%
[2]; about 12 hrs after release from the aphidicolin block
  MI peak: 9.8%
[3]; 1 h after aphidicolin removal
  Labelling Index (%): 19.41%
  Mitotic index (%): 0%
[3]; 2 h after aphidicolin removal
  Labelling Index (%): 35.47%
  Mitotic index (%): 0.2%
[3]; 3 h after aphidicolin removal
  Labelling Index (%): 69.46%
  Mitotic index (%): 0.4%
[3]; 4 h after aphidicolin removal
  Labelling Index (%): 66%
  Mitotic index (%): 0.6%
[3]; 5 h after aphidicolin removal
  Labelling Index (%): 39.22%
  Mitotic index (%): 1.21%
[3]; 6 h after aphidicolin removal
  Labelling Index (%): 16.05%
  Mitotic index (%): 0.92%
[3]; 7 h after aphidicolin removal
  Labelling Index (%): 13.27%
  Mitotic index (%): 0.71%
[3]; 8 h after aphidicolin removal
  Labelling Index (%): 9.6%
  Mitotic index (%): 1.87%
[3]; 9 h after aphidicolin removal
  Labelling Index (%): 8.23%
  Mitotic index (%): 2.41%
[3]; 10 h after aphidicolin removal
  Labelling Index (%): 9.23%
  Mitotic index (%): 6.09%
[3]; 11 h after aphidicolin removal
  Labelling Index (%): 4.6%
  Mitotic index (%): 6.7%
[3]; 12 h after aphidicolin removal
  Labelling Index (%): 1.46%
  Mitotic index (%): 10.72%
[3]; 13 h after aphidicolin removal
  Labelling Index (%): 2.78%
  Mitotic index (%): 11.06%
[3]; 14 h after aphidicolin removal
  Labelling Index (%): 3.61%
  Mitotic index (%): 10.99%
[3]; 15 h after aphidicolin removal
  Labelling Index (%): 2.73%
  Mitotic index (%): 6.74%
[3]; 16 h after aphidicolin removal
  Labelling Index (%): 2.28%
  Mitotic index (%): 5.79%
[3]; 17 h after aphidicolin removal
  Labelling Index (%): 1.96%
  Mitotic index (%): 4.49%
[3]; 18 h after aphidicolin removal
  Labelling Index (%): 3.3%
  Mitotic index (%): 4.01%
[3]; 19 h after aphidicolin removal
  Labelling Index (%): 7.62%
  Mitotic index (%): 2.38%
